Results on 13 molecules are retold here after US20230131402A1, “SPIRO-LACTAM NMDA RECEPTOR MODULATORS AND USES THEREOF” (Aptinyx Inc., priority 2016, published 2023).

SMILES strings stand for the structures.

One series deals with T1, NMDAR2A (Homo sapiens, UniProt Q12879).
T1 construct: expressed in transfected cells; host or cells: HEK cells (membrane extract)
Put plainly: [3H]MK-801 binding, NMDAR2A expressing HEK cell membranes. It is filed as biochemical. To be noted: 50 μM glutamate; for EC50: read-out: NMDAR2A B: log EC50 (converted); for Emax: read-out: NMDAR2A A: % maximal [3H]MK-801 binding relative to 1 mM glycine. As to the method:
(§1) Assays were conducted as described by Moskal et al., “GLYX-13: a monoclonal antibody-derived peptide that acts as an N-methyl-D-aspartate receptor modulator,” Neuropharmacology, 49, 1077-87, 2005. These studies were designed to determine if the test compounds act to facilitate NMDAR activation in NMDAR2A, NMDAR2B, NMDAR2C or NMDAR2D expressing HEK cell membranes as measured by increases in [^3H]MK-801 binding.
(§2) In the assay, 300 μg of NMDAR expressing HEK cell membrane extract protein was preincubated for 15 minutes at 25° C. in the presence of saturating concentrations of glutamate (50 μM) and varying concentrations of test compound (1×10^−15M−1×10^−7M), or 1 mM glycine. Following the addition of 0.3 μCi of [^3H]MK-801 (22.5 Ci/mmol), reactions were again incubated for 15 minutes at 25° C. (nonequilibrium conditions). Bound and free [^3H]MK-801 were separated via rapid filtration using a Brandel apparatus.
(§3) In analyzing the data, the DPM (disintegrations per minute) of [^3H]MK-801 remaining on the filter were measured for each concentration of test compound or for 1 mM glycine. The DPM values for each concentration of a ligand (N=2) were averaged. The baseline value was determined from the best fit curve of the DPM values modeled using the GraphPad program and the log(agonist) vs. response(three parameters) algorithm was then subtracted from all points in the dataset. The % maximal [^3H]MK-801 binding was then calculated relative to that of 1 mM glycine: all baseline subtracted DPM values were divided by the average value for 1 mM glycine. The EC50 and % maximal activity were then obtained from the best fit curve of the % maximal [^3H]MK-801 binding data modelled using the GraphPad program and the log(agonist) vs. response(three parameters) algorithm.
(§4) The tables below summarize the results for the wild type NMDAR agonists NMDAR2A, NMDAR2B, NMDAR2C, and NMDAR2D, and whether the compound is not an agonist (−), is an agonist (+), or is a strong agonist (++), where column A is based on the % maximal [^3H]MK-801 binding relative to 1 mM glycine (−=0; <100%=+; and >100%=++); and column B is based on log EC50 values (0=−; ≥1×10^−9M (e.g., −8)=+; and <1×10^−9M (e.g., −10)=++).

In the next series the target is T2, NMDAR2B (Homo sapiens, UniProt Q13224).
T2 construct: expressed in transfected cells; host or cells: HEK cells (membrane extract)
T2 sequence (Q13224 27-1484, species assumed, other chains not shown): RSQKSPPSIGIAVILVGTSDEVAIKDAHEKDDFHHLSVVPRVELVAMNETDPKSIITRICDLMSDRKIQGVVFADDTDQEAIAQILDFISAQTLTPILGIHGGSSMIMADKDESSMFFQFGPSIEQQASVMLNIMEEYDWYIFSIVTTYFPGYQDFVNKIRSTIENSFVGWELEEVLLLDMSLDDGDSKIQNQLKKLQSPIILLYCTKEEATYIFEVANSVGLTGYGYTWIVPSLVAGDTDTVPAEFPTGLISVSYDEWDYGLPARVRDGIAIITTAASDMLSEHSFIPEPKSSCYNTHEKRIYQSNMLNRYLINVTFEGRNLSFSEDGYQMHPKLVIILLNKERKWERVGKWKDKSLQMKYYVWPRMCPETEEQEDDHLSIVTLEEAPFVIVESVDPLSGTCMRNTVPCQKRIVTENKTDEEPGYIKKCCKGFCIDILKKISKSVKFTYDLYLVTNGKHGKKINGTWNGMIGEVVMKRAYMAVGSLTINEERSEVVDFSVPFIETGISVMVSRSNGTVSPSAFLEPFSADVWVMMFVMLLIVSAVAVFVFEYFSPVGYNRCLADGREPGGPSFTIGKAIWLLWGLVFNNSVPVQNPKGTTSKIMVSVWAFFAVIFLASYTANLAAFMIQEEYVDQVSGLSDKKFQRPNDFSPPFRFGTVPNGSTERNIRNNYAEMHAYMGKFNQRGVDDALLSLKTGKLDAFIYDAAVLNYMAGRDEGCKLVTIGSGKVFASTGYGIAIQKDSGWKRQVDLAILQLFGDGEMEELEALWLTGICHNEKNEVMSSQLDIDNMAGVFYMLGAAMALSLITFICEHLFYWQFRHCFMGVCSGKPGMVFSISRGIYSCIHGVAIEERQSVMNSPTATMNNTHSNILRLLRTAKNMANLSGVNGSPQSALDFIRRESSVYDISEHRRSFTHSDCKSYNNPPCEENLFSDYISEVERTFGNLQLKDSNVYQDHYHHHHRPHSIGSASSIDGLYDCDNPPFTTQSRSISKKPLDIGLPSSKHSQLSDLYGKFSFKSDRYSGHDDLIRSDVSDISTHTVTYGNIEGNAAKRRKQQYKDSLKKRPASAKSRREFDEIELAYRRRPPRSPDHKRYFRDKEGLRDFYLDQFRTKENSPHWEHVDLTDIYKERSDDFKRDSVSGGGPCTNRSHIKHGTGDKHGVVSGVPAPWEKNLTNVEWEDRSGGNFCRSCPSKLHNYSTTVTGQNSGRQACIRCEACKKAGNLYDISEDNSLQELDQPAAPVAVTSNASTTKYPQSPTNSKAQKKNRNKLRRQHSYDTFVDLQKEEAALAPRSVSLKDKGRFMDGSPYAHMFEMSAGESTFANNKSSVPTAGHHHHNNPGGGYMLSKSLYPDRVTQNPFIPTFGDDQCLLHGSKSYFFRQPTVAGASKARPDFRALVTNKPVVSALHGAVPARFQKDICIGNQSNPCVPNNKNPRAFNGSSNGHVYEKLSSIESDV
Put plainly: [3H]MK-801 binding, NMDAR2B expressing HEK cell membranes. It counts as biochemical. To be noted: 50 μM glutamate; for EC50: read-out: NMDAR2B B: log EC50 (converted); for Emax: read-out: NMDAR2B A: % maximal [3H]MK-801 binding relative to 1 mM glycine. As to the method: as §1, §2, §3, §4

The nature of a further series: IV pharmacokinetics. It is filed as in vivo, Sprague Dawley rats. To be noted: Sprague Dawley, rat, in vivo, iv, 2 mg/kg, normal saline (compounds marked * in 1% NMP and 99% normal saline); for C0: read-out: C0; for Vd: read-out: Vss. The text has this: The table below summarizes the results of the IV pharmacokinetics.
Series [1] in a line: Oral pharmacokinetics (plasma, brain, CSF). The note with it: rat, 10 mg/kg, per os; for bioavailability / AUC(0-t) / Cmax / Tmax: Sprague Dawley, plasma, po; for bioavailability: % F; for AUC(0-t): AUClast; for AUC(0-t) / Cmax / Tmax: normal saline (compounds marked * in 1% NMP and 99% normal saline).
Description: Plasma, brain, and CSF samples were analyzed at various time points over a 24 hour period.
In series [2] the test system is rats' response (reduced floating time). Kind of series: Porsolt forced swim test. To be noted: for % reduction in float time: relative to vehicle group. It is filed as in vivo, Sprague Dawley rats. As to the method: A non-clinical in vivo pharmacology study (Porsolt assay) was performed to measure antidepressant-like effects. A negative control (0.5% sodium carboxymethyl cellulose in 0.9% sterile saline vehicle) and a positive control (fluoxetine) are shown for comparison against test compound. The study allowed for the evaluation of the effects of each compound on the Porsolt forced swim test as assessed by the rats' response (reduced floating time) during a 5-minute swimming test.
Male 2-3 month old Sprague Dawley rats were used (Harlan, Indianapolis, Ind.). Rats were housed in Lucite cages with aspen wood chip bedding, maintained on a 12:12 light:dark cycle (lights on at 5 AM), and given ad libitum access to Purina lab chow (USA) and tap water throughout the study.
The Porsolt forced swim test adapted for use in rats was performed as described by Burgdorf et al., (The long-lasting antidepressant effects of rapastinel (GLYX-13) are associated with a metaplasticity process in the medial prefrontal cortex and hippocampus. Neuroscience 308:202-211, 2015). Animals were placed in a 46 cm tall×20 cm in diameter clear glass tube filled to 30 cm with tap water (23±1° C.) for 15 min on the first day (habituation) and 5 min on the subsequent test day. Positive control fluoxetine was dosed 3 times (24 h, 5 h and 1 h) prior to testing. Animals were tested 1 h post-dosing with the test compounds or vehicle. Animals received a 15 min habituation session 1 day before the 5 min test. A subset of compounds tested at 1 h post-dosing were retested at 1 wk post-dosing in the same sets of animals. Water was changed after every other animal. Animals were videotaped, and floating time as defined as the minimal amount of effort required to keep the animals head above water was scored offline by a blinded experimenter with high inter-rater reliability (Pearson's r>0.9).
Each compound tested at dose level shown. Significance vs. vehicle group for each experiment is marked. […] A compound marked “No” was not statistically significant from vehicle. Data was averaged for test compound and vehicle groups (N approximately 8 per group) and the percent reduction in floating for group treated with test compound relative to group treated with vehicle is shown.

Where [3] appears, read: 1 wk post-dose, 0.1 mg/kg, 0.1 mg/kg.
The mark [4] stands for this setting: 1 wk post-dose, 0.1 mg/kg, Yes = p<=0.05 from vehicle.
Setting [5] is: 1 h post-dose, 0.1 mg/kg, 0.1 mg/kg.
The mark [6] stands for this setting: 1 h post-dose, 0.1 mg/kg, Yes = p<=0.05 from vehicle.

T1 sequence (Q12879 23-1464, species assumed, other chains not shown): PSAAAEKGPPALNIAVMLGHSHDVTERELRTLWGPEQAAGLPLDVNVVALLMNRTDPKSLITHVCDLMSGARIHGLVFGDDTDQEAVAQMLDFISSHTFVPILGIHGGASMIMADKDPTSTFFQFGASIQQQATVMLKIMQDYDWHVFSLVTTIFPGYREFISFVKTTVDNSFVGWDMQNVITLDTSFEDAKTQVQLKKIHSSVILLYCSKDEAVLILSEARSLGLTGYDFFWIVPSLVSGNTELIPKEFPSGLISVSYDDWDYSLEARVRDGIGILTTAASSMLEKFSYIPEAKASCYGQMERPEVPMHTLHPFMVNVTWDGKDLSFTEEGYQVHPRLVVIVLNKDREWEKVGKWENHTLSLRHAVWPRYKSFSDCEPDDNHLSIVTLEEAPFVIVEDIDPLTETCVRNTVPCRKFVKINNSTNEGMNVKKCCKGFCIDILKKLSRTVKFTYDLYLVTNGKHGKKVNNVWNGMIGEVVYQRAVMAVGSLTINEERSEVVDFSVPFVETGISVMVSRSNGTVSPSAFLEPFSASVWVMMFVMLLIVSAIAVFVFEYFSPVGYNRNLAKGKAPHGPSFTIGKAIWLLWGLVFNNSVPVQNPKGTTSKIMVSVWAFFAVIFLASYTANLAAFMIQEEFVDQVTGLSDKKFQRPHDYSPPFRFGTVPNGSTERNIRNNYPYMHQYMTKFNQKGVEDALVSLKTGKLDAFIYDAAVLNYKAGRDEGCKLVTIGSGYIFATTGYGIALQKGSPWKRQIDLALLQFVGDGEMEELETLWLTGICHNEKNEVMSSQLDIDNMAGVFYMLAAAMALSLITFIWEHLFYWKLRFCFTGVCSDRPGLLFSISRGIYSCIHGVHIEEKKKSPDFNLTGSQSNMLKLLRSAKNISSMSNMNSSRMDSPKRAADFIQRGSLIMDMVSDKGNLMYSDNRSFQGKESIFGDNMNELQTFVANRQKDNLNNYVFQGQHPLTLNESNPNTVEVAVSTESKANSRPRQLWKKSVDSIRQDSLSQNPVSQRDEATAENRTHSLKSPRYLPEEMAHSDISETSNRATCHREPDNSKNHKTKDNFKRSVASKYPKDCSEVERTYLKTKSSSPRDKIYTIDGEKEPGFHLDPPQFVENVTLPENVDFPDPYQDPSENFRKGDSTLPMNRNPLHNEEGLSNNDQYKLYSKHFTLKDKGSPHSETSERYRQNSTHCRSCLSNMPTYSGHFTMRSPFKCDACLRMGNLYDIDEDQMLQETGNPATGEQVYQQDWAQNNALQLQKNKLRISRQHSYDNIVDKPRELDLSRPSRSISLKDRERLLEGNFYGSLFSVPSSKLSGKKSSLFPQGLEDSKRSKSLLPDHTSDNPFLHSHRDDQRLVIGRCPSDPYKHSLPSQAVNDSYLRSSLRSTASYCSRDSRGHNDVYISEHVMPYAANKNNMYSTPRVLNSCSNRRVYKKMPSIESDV

As for `CC(C)C(=O)N1CCN(Cc2ccccc2)C2(CCNC2=O)C1` (stereo not shown) [ES-321], at NMDAR2A, the “NMDAR2A A: % maximal [3H]MK-801 binding relative to 1 mM glycine” value is reported as “+ (<100%=+)” and the EC50 was > 1 nM. For the same molecule, on NMDAR2B, the “NMDAR2B A: % maximal [3H]MK-801 binding relative to 1 mM glycine” value is given as “++ (>100%=++)” and the EC50 was < 1 nM. Besides, in “IV pharmacokinetics”, the AUC(0-t) stood at 577 ng·h/mL, the clearance is 58.6 mL/min/kg, the half-life is 10.2 min and the C0 stood at 2570 ng/mL. Further, the Vd in the series “IV pharmacokinetics” is 0.71 L/kg. In series [1], the bioavailability was determined as 16%, the AUC(0-t) is 466 ng·h/mL, the peak level (Cmax) was 795 ng/mL and the Tmax was 15 min.

As to `CNCCC(Oc1ccc(C(F)(F)F)cc1)c1ccccc1` (stereo not shown) [Fluoxetine, fluoxetine, reference compound], the Significance vs. vehicle result in series [2] (positive control, 20 mg/kg, dosed 3 times (24 h, 5 h and 1 h) prior to testing) is “Yes”.

Take `O=C1NCCC12CNCCN2` (stereo not shown) [ES-301]: the Emax at NMDAR2A was 0%. Besides, at NMDAR2B, the Emax is < 100% and the EC50 was < 1 nM.

With `CC(C)(C)OC(=O)N1CCNC2(C1)CN(CC(N)=O)C2=O` (stereo not shown) [ER-142], on NMDAR2A, the “NMDAR2A A: % maximal [3H]MK-801 binding relative to 1 mM glycine” value is listed as “+ (<100%=+)” and the EC50 is < 1 nM. Besides, the “NMDAR2B A: % maximal [3H]MK-801 binding relative to 1 mM glycine” value at NMDAR2B is “− (−=0)”.

As to `CC(=O)N1CCN(Cc2ccccc2)C2(CCNC2=O)C1` (stereo not shown) [ES-320], at NMDAR2A, the “NMDAR2A A: % maximal [3H]MK-801 binding relative to 1 mM glycine” value is on record as “− (−=0)”. In addition, the “NMDAR2B A: % maximal [3H]MK-801 binding relative to 1 mM glycine” value on NMDAR2B is listed as “− (−=0)”.

Turning to `CC(C)C(=O)N1CCN(Cc2ccccc2)C2(CCNC2=O)C1` (stereo not shown) [ES-322], at NMDAR2A, the “NMDAR2A A: % maximal [3H]MK-801 binding relative to 1 mM glycine” value is “− (−=0)”. Moreover, the “NMDAR2B A: % maximal [3H]MK-801 binding relative to 1 mM glycine” value on NMDAR2B was “− (−=0)”.

Regarding `O=C1NCCC12CNCCN2` (stereo not shown) [ES-302], on NMDAR2A, the “NMDAR2A A: % maximal [3H]MK-801 binding relative to 1 mM glycine” value is given as “− (−=0)”. Moreover, on NMDAR2B, the “NMDAR2B A: % maximal [3H]MK-801 binding relative to 1 mM glycine” value is recorded as “++ (>100%=++)” and the concentration giving a half-maximal response (EC50) is < 1 nM. Further, in the series “IV pharmacokinetics”, the area under the curve AUC(0-t) amounted to 1720 ng·h/mL, the clearance was found to be 18.9 mL/min/kg, the half-life was 142 min and the C0 worked out at 6090 ng/mL. The Vd in “IV pharmacokinetics” stood at 1.33 L/kg. Also, in series [1], the bioavailability amounted to 12%, the area under the curve AUC(0-t) was found to be 1040 ng·h/mL, the highest level (Cmax) was 340 ng/mL and the Tmax was 49.8 min.

With `CC(C)(C)OC(=O)N1CCNC2(CCNC2=O)C1` (single isomer, unassigned) [EN, Tert-Butyl 1-Oxo-2,6,9-Triazaspiro[4.5]Decane-9-Carboxylate], on NMDAR2A, the “NMDAR2A A: % maximal [3H]MK-801 binding relative to 1 mM glycine” value is listed as “− (−=0)”. The “NMDAR2B A: % maximal [3H]MK-801 binding relative to 1 mM glycine” value at NMDAR2B was “− (−=0)”.

As to `CC(C)(C)OC(=O)N1CCNC2(C1)CN(CC(N)=O)C2=O` (stereo not shown) [ER-141], the “NMDAR2A A: % maximal [3H]MK-801 binding relative to 1 mM glycine” value at NMDAR2A is recorded as “− (−=0)”. On NMDAR2B, the “NMDAR2B A: % maximal [3H]MK-801 binding relative to 1 mM glycine” value is on record as “+ (<100%=+)” and the EC50 was < 1 nM. Also, in the series “IV pharmacokinetics”, the AUC(0-t) came out at 1670 ng·h/mL, the clearance worked out at 19.9 mL/min/kg, the half-life is 33 min and the C0 was 4280 ng/mL. Further, the Vd in “IV pharmacokinetics” worked out at 0.7 L/kg. For the same molecule, in series [1], the bioavailability stood at 31%, the AUC(0-t) is 2620 ng·h/mL, the Cmax amounted to 962 ng/mL and the time of peak concentration (Tmax) came out at 49.8 min. Besides, in series [1] (CSF), the “CSF Cmax” value worked out at 42 ng/mL.

Regarding `O=C1NCC12CN(Cc1ccccc1)CCN2Cc1ccccc1` (single isomer, unassigned) [EA-2, 5,8-Dibenzyl-2,5,8-Triazaspiro[3.5]Nonan-1-One], at NMDAR2A, the “NMDAR2A A: % maximal [3H]MK-801 binding relative to 1 mM glycine” value is listed as “− (−=0)”. Also, the “NMDAR2B A: % maximal [3H]MK-801 binding relative to 1 mM glycine” value at NMDAR2B is “− (−=0)”.

For `CC(C)(C)OC(=O)N1CCNC2(CCNC2=O)C1` (single isomer, unassigned) [EM, Tert-Butyl 1-Oxo-2,6,9-Triazaspiro[4.5]Decane-9-Carboxylate], on NMDAR2A, the “NMDAR2A A: % maximal [3H]MK-801 binding relative to 1 mM glycine” value was “+ (<100%=+)” and the EC50 was < 1 nM. At NMDAR2B, the “NMDAR2B A: % maximal [3H]MK-801 binding relative to 1 mM glycine” value was “++ (>100%=++)” and the EC50 is > 1 nM.

For `CN1CCN(Cc2ccccc2)C2(CCNC2=O)C1` (stereo not shown) [ES-315], the Emax at NMDAR2A and at NMDAR2B was < 100% in each case. The EC50 on NMDAR2A and at NMDAR2B was < 1 nM each time. In addition, the “% reduction in float time” value in series [2] (setting [3]) is on record as 25.0%; in series [2] (setting [5]) it was 44.1%. The Significance vs. vehicle entry in series [2] (setting [4]) was “No”; in series [2] (setting [6]), “Yes”.

Consider `C[C@@H](O)[C@H](N)C(=O)N1CCNC2(CCNC2=O)C1` (stereo partly shown) [ES-335], for which the Emax on NMDAR2A and at NMDAR2B was < 100% throughout. Moreover, the EC50 at NMDAR2A and on NMDAR2B was < 1 nM throughout. Moreover, the “% reduction in float time” value in series [2] (setting [3]) is 72.9%; in series [2] (setting [5]), 58.5%. Further, the Significance vs. vehicle result in series [2] (setting [4]) and in series [2] (setting [6]) was “Yes” each time.
